Measurements published in patent publication US6555559B1, “5,6,7-trinor-4,8-inter-m-phenylene PGI2, derivative and drugs containing the same” (Toray Industries, Inc., priority 1998, dated 2003).
Converted amounts (≈) assume the structure as drawn.

Tests used:
Format in all cases: cell-based
[1] = system: Helicobacter pylori (2 ATCC strains and 25 clinical isolates); assay: Antibacterial activity on Helicobacter pylori, agar dilution MIC, 27 strains; settings: for Growth inhibition rate: share of 27 strains inhibited
Method: As test strains, 2 commercial ATCC strains ([…] and TACC43526 strain) of Helicobacter pylori, and 25 clinical isolates were used. Each of the strains was inoculated into a brain heart infusion agar medium containing 7% horse blood, and cultured under microaerophilic conditions including 5% of O2, 10% of CO2 and 85% of N2 at 37° C. After culture for 3 to 4 days, colonies of each strain formed on the medium were collected, and suspended in a brain heart infusion medium containing 10% of fetal calf serum so that turbidity was McFarland No. 1 (the number of bacteria was about 3×10^8/ml) to form a test bacterial suspension. On the other hand, a test compound (compound 4) was dissolved in dimethylsulfoxide, and a diluent in a double dilution series was prepared with dimethylsulfoxide so that the final concentration of the solvent was 0.5%, to form a test drug solution. 100 μl of the test drug solution was mixed with 20 ml of a brain heart infusion agar medium containing 7% horse blood and about 45° C., and the resultant mixture was solidified by allowing to cool to form a test medium. Next, about 5 μl of test bacterial suspension was inoculated into the medium by using a micro planter, and then cultured under microaerophilic conditions including 5% of O2, 10% of CO2 and 85% of N2 at 37° C. for 4 days. […] The minimum concentration at which growth of 50% of the total 27 stains used in the test was inhibited was MIC50, and the minimum concentration at which growth of 90% the strains used was inhibited was MIC90.

[2] = system: Helicobacter pylori (three strains of ATCC43504, ATCC43526, and TK1402); assay: Antibacterial activity on Helicobacter pylori, disk method, lethal concentration (LC); settings: culture 4 days
Method: A blank disk (produced by Beckton Deckinson Co.,) was placed in a brain heart infusion agar medium containing 7% horse blood and coated with Helicobacter pylori (three strains of ATCC43504, ATCC43526, and TK1402). The disk was soaked with 10 μl of a solution of a test compound in dimethylsulfoxide, and then cultured under microaerophilic conditions including 5% of O2, 10% of CO2 and 85% of N2 at 37° C. for 4 days. After the completion of culture, the diameter of a growth inhibition circle formed around the disk was measured, and the lethal concentration (LC) of each test compound was computed according to the computation expression of Hultmark et al. (The EMBO Journal, 2, 571-576, 1983).

[3] = system: human platelet aggregation; assay: Effect on human platelet aggregation (ADP-induced, in the presence of SQ-29548); settings: human PRP, SQ-29548 added, aggregation induced with ADP, compound 10 μM; control 38 ± 4.9
Method: The blood collected from healthy persons was centrifuged to separate platelet-rich plasma (PRP) and platelet-poor plasma (PPP). […] Experiment was carried out for 3 examples per group.

CC(C)(Oc1ccccc1)C(O)C(F)=CC1C(O)CC2Oc3c(CCC(=O)O)cccc3C21 (stereo not drawn) [Example 4, 14-Fluoro-16-methyl-16-phenoxy-15-epi-2,5,6,7,18,19,20-heptanor-4,8-inter-m-phenylene PGI2] was tested, and the “Number of strains inhibited/total strains” value ([1]; concentration 12.5 μM) was 11/27, the Growth inhibition rate ([1]; concentration 12.5 μM) was 40.7% and the “Number of strains inhibited/total strains” value ([1]; concentration 25 μM) was 20/27. The Growth inhibition rate ([1]; concentration 25 μM) was 74.1%, the “Number of strains inhibited/total strains” value ([1]; concentration 50 μM) was 26/27 and the Growth inhibition rate ([1]; concentration 50 μM) was 96.3%. For the same compound, the MIC50 ([1]; minimum concentration inhibiting growth of 50% of the total 27 strains) was 12.5 µM (≈ 5.71 µg/mL) and the MIC90 ([1]; minimum concentration inhibiting growth of 90% of the total 27 strains) was 50 µM (≈ 22.8 µg/mL).
COC(=O)CCc1cccc2c1OC1CC(OC(C)=O)C(C=C(F)C(=O)C(C)(C)Oc3ccccc3)C21 (stereo not drawn) [Example 1, 14-Fluoro-16-methyl-15-oxo-16-phenoxy-2,5,6,7,18,19,20-heptanor-4,8-inter-m-phenylene PGI2 Methyl Ester, 11-Acetate] was tested, and the “Antibacterial activity (lethal concentration LC)” value (shortened to “Antibacterial activity”) ([2]; Helicobacter pylori strain ATCC43504) was 141 ± 27 µM, the “Antibacterial activity” value ([2]; Helicobacter pylori strain ATCC43526) was 169 ± 6 µM and the “Antibacterial activity” value ([2]; Helicobacter pylori strain TK1402) was 151 ± 4 µM.
Compound CC(C)(Oc1ccccc1)C(O)C(F)=CC1C(O)CC2Oc3c(CCC(=O)O)cccc3C21 (stereo not drawn) [Example 3, 14-Fluoro-16-methyl-16-phenoxy-2,5,6,7,18,19,20-heptanor-4,8-inter-m-phenylene PGI2] has a Platelet aggregation [3] of 54 ± 1.7%.
